Earlier results as cited in patent publication US20070191377A1, “Methods for treating blood disorders with nitric oxide donor compounds” (NitroMed, Inc., priority 2004, published 2007).

O=[N+]([O-])O[C@H]1CO[C@H]2[C@@H]1OC[C@H]2O[N+](=O)[O-] [isosorbide dinitrate, 1,4,3,6-dianhydro-D-glucitol-2,5-dinitrate]
solubility in organic solvents (organic solvents such as ethanol, ether and chloroform): freely soluble | solubility in water (water): sparingly soluble
